Reference: the CheMixHub ionic liquid set

Experiment: xn = mol fraction of the nth substance listed
Conditions: 100 kPa

CCCCCCCC[n+]1ccccc1.[Br-] + CC(C)[C@H](NC(=O)CN)C(=O)O + O
electrical conductivity [S/m]
Conditions | 288.15 K | 293.15 K | 298.15 K
x2 = 0.0008946, x1 = 0.006158 | – | 1.51 | 1.7
x2 = 0.0008946, x1 = 0.00616 | 1.33 | – | –
x2 = 0.0008949, x1 = 0.00588 | – | – | 1.65
x2 = 0.0008949, x1 = 0.005882 | – | 1.47 | –
x2 = 0.0008949, x1 = 0.005884 | 1.29 | – | –
x2 = 0.0008952, x1 = 0.005573 | – | 1.42 | 1.6
x2 = 0.0008952, x1 = 0.005575 | 1.25 | – | –
x2 = 0.0008955, x1 = 0.005246 | – | – | 1.55
x2 = 0.0008955, x1 = 0.005248 | 1.21 | 1.38 | –
x2 = 0.0008958, x1 = 0.004885 | – | – | 1.49
x2 = 0.0008958, x1 = 0.004887 | 1.17 | 1.32 | –
x2 = 0.0008961, x1 = 0.004505 | – | 1.27 | 1.43
x2 = 0.0008961, x1 = 0.004507 | 1.12 | – | –
x2 = 0.0008965, x1 = 0.004077 | 1.05 | 1.19 | 1.34
x2 = 0.0008969, x1 = 0.003608 | 0.964 | 1.1 | 1.23
x2 = 0.0008974, x1 = 0.003092 | 0.861 | 0.974 | 1.1
x2 = 0.0008979, x1 = 0.002527 | 0.74 | 0.84 | 0.942
x2 = 0.0008985, x1 = 0.001896 | 0.592 | 0.67 | 0.751
x2 = 0.0008988, x1 = 0.001509 | 0.493 | 0.557 | 0.623
x2 = 0.0008992, x1 = 0.001132 | 0.388 | 0.437 | 0.489
x2 = 0.0008995, x1 = 0.0007259 | 0.276 | 0.309 | 0.343
x2 = 0.001788, x1 = 0.005721 | – | 1.4 | –
x2 = 0.001788, x1 = 0.005723 | 1.23 | – | –
x2 = 0.001788, x1 = 0.005981 | 1.26 | 1.44 | –
x2 = 0.001789, x1 = 0.00542 | – | 1.36 | –
x2 = 0.001789, x1 = 0.005422 | 1.19 | – | –
x2 = 0.00179, x1 = 0.004736 | – | 1.26 | –
x2 = 0.00179, x1 = 0.004738 | 1.11 | – | –
x2 = 0.00179, x1 = 0.005091 | 1.15 | 1.31 | –
x2 = 0.001791, x1 = 0.004351 | 1.06 | 1.2 | –
x2 = 0.001792, x1 = 0.003932 | 0.991 | 1.12 | –
x2 = 0.001793, x1 = 0.002972 | – | 0.917 | –
x2 = 0.001793, x1 = 0.002974 | 0.81 | – | –
x2 = 0.001793, x1 = 0.003476 | 0.909 | 1.03 | –
x2 = 0.001794, x1 = 0.002419 | 0.692 | 0.785 | –
x2 = 0.001796, x1 = 0.001458 | 0.463 | 0.521 | –
x2 = 0.001796, x1 = 0.001805 | 0.55 | 0.621 | –
x2 = 0.001797, x1 = 0.0007114 | 0.261 | 0.293 | –
x2 = 0.001797, x1 = 0.001099 | 0.365 | 0.411 | –
